Experimental findings from patent US8993585B2, “Cyclic amine substituted pyrimidinediamines as PKC inhibitors” (Rigel Pharmaceuticals, Inc., priority 2007, dated 2015) are described below.

The target of one experiment is T1, PKC theta (Homo sapiens, UniProt Q04759).
T1 construct: purchased Upstate Biotechnologies, Temecula, CA 14-444
Put plainly: PKC assay, fluorescence polarization (Example 2), PKC theta. To be noted: 5 μM ATP. The format is biochemical. As for the experimental part: The inhibition of PKC activity was measured by monitoring the production of phosphorylated peptide by fluorescence polarization at different concentrations of the inhibitor. Reactions were carried out in 96-well plate format with a total volume of 20 μL containing 20 mM HEPES, pH 7.4, 5 mM MgCl2, 0.2 mM CaCl2, 1 mM DTT, 0.02% Brij-35, 0.1 mg/mL phosphatidylserine, 0.02 mg/mL dioleoyl-sn-glycerol and 5 μM each of ATP and the peptide substrate. Compounds were first diluted serially in DMSO and then transferred to a solution containing the above concentrations of HEPES, MgCl2, CaCl2, DTT, and Brij-35 to yield 5× compound solutions in 2% DMSO, which was then added to the reaction solution. Reactions were initiated by the addition of PKC at a typical concentration as described in Table VI, and then allowed to incubate at room temperature for 20 min. At the end of this time, a combination of quench (EDTA) and detection (peptide tracer and antibody) reagents was added using the protocol of Invitrogen P2748.
On the technique in general: Fluorescence polarisation rises when a labelled molecule tumbles more slowly, as on binding a larger partner.

The test system of the next experiment is Human primary T cells. The experiment is described as follows: IL-2 ELISA, Human Primary T Cell, Anti-CD3+CD28+ (Example 3). The format is cell-based. The note with it: Homo sapiens, T-cell, 24 h, anti-CD3+CD28 stimulation. An outline of the steps:
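IL-2 was read by ELISA after stimulation on wells pre-coated with 1 ug/ml αCD3 and 5 μg/ml αCD28. Before this, 100,000 human primary T cells per well spent 1 h at 37 °C with test compound in Yssel's medium. The counter-screen replaced antibody stimulation with PMA (0.5 ng/ml final) and ionomycin (0.1 uM final).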
In general terms: An ELISA detects its analyte on a solid surface through an enzyme-linked reagent.

T1 sequence (Q04759 whole entry): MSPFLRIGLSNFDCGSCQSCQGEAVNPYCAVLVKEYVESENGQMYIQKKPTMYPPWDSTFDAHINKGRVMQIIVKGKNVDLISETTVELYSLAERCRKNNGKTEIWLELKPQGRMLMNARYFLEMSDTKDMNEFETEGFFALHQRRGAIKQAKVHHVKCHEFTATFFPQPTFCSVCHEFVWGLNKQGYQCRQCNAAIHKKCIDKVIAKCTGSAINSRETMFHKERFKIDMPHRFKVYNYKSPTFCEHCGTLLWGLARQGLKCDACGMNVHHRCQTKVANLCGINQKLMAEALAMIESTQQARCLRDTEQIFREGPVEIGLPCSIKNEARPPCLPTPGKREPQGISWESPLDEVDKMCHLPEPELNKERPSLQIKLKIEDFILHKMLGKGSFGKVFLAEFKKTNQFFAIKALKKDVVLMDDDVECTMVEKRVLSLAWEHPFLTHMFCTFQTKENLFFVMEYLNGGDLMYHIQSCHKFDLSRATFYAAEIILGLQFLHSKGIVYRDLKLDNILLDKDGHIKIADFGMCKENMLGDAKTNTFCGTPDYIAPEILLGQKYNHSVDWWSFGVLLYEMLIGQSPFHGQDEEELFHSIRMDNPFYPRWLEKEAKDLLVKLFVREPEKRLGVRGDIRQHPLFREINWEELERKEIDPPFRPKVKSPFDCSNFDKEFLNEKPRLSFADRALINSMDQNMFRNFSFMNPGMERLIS

Regarding `CN1C(C)(C)CC(Nc2nc(Nc3ccc(-c4ccncc4)c(F)c3)ncc2F)CC1(C)C` [Compound I-115], the half-inhibitory concentration (IC50) was found to be 21.9 nM on PKC theta and 287 nM in the experiment on Human primary T cells.

Consider `N#Cc1cccc(Nc2ncc(F)c(NC3CCN(CCO)CC3)n2)c1` [III-6, N2-(3-Cyano)phenyl-5-fluoro-N4-[1-(2-hydroxyethyl)piperidin-4-yl]-2,4-pyrimidinediamine], for which the IC50 was 255 nM at PKC theta and 1560 nM in the experiment on Human primary T cells.

`CN1CCN(c2ccc(Nc3ncc(F)c(NC4CC(C)(C)N(C)C(C)(C)C4)n3)cc2)CC1` [Compound I-1]: the IC50 was 226 nM at PKC theta and 3020 nM in the experiment on Human primary T cells.

On to `Cc1cc(Nc2ncc(F)c(NC3CC(C)(C)N(C)C(C)(C)C3)n2)ccc1N1CCN(C)CC1` [Compound I-4], for which the IC50 on PKC theta stood at 30 nM; in the experiment on Human primary T cells, 254 nM.

Regarding `CN1C(C)(C)CC(Nc2nc(Nc3cccc(C#N)c3)ncc2F)CC1(C)C` [Compound I-26], the IC50 on PKC theta worked out at 3 nM; in the experiment with Human primary T cells, 59 nM.

Turning to `CN1C(C)(C)CC(Nc2nc(Nc3cccc(S(N)(=O)=O)c3)ncc2F)CC1(C)C` [Compound I-10], the IC50 at PKC theta is 70 nM; in the experiment with Human primary T cells, 1880 nM.

For the compound `CN1C(C)(C)CC(Nc2nc(Nc3ccc(NC(=O)c4ccco4)c(Cl)c3)ncc2F)CC1(C)C` [Compound I-339], the IC50 at PKC theta turned out to be 31.8 nM; in the experiment with Human primary T cells it was 188 nM.

With `CC(=O)N1C(C)CN(c2cc(Nc3ncc(F)c(NC4CC(C)(C)N(C)C(C)(C)C4)n3)ccc2Cl)CC1C` (stereo not drawn) [Compound I-251], the figures for the IC50 at PKC theta and with Human primary T cells were 379 nM and 384 nM, respectively.

As for `CN1C(C)(C)CC(Nc2nc(Nc3ccc(-c4cccnc4)c(C#N)c3)ncc2F)CC1(C)C` [Compound I-186], the IC50 at PKC theta turned out to be 1.41 nM; with Human primary T cells it was 92.4 nM.

As for `CC1CN(c2cc(Nc3ncc(F)c(NC4CC(C)(C)N(C)C(C)(C)C4)n3)ccc2Cl)CC(C)N1C` (stereo not drawn) [Compound I-250], the results for the IC50 at PKC theta and in the experiment with Human primary T cells were 1040 nM and 1500 nM, respectively.

For the compound `Cc1cc(C)cc(Nc2ncc(F)c(NC3CC(C)(C)N(C)C(C)(C)C3)n2)c1` [Compound I-12], the half-inhibitory concentration (IC50) on PKC theta amounted to 22 nM; with Human primary T cells, 341 nM.

Regarding `CN1C(C)(C)CC(Nc2nc(Nc3ccc(C#N)c(Cl)c3)ncc2F)CC1(C)C` [Compound I-22], the IC50 at PKC theta was 21 nM; in the experiment with Human primary T cells, 177 nM.

With `CN1C(C)(C)CC(Nc2nc(Nc3ccc(-c4cccnc4)c(Cl)c3)ncc2F)CC1(C)C` [Compound I-154], the IC50 at PKC theta is 3.81 nM; with Human primary T cells it was 261 nM.

As to `CN1C(C)(C)CC(Nc2nc(Nc3cc(Br)cc(C(F)(F)F)c3)ncc2F)CC1(C)C` [Compound I-162], the figures for the IC50 at PKC theta and in the experiment on Human primary T cells were 68.6 nM and 553 nM, respectively.

With `Cc1cc(Nc2ncc(F)c(NC3CC(C)(C)N(C)C(C)(C)C3)n2)ccc1-c1ccncc1` [Compound I-120], the IC50 came out at 29.5 nM on PKC theta and 366 nM in the experiment on Human primary T cells.

Consider `CN1C(=O)COc2cc(Nc3ncc(F)c(NC4CC(C)(C)N(C)C(C)(C)C4)n3)ccc21` [II-6], for which the IC50 is 6.06 nM at PKC theta and 244 nM in the experiment on Human primary T cells.

For the compound `CN1C(C)(C)CC(Nc2nc(Nc3ccc(-c4cnn(C)c4)c(Cl)c3)ncc2F)CC1(C)C` [Compound I-157], the 50% inhibitory concentration (IC50) on PKC theta was determined as 3.1 nM; in the experiment with Human primary T cells, 242 nM.

`Cc1ccc(Nc2ncc(F)c(NC3CC(C)(C)N(C)C(C)(C)C3)n2)cc1S(N)(=O)=O` [Compound I-11]: the IC50 on PKC theta is 52 nM; with Human primary T cells, 1570 nM.

Take `CN1C(C)(C)CC(Nc2nc(Nc3ccc(N4CCN(S(C)(=O)=O)CC4)c(C(F)(F)F)c3)ncc2C#N)CC1(C)C` [Compound I-95]: the half-inhibitory concentration (IC50) turned out to be 43 nM at PKC theta and 347 nM with Human primary T cells.

For `CN1C(C)(C)CC(Nc2nc(Nc3ccc(Cl)c(C#N)c3)ncc2F)CC1(C)C` [Compound I-163], the IC50 on PKC theta amounted to 3.8 nM; in the experiment on Human primary T cells it was 290 nM.

Take `Cc1ccc(Nc2ncc(F)c(NC3CC(C)(C)N(C)C(C)(C)C3)n2)cc1Br` [Compound I-160]: the values for the half-inhibitory concentration (IC50) at PKC theta and with Human primary T cells were 32.6 nM and 202 nM, respectively.

In general, IC50 refers to the concentration needed to halve the response being measured.
